Measurements taken from ChEMBL document CHEMBL1201862, “PubChem BioAssay data set” (2004).
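A five-concentration, 48-hour dose response in 96-well plates underlies each endpoint, interpolated linearly between surrounding concentrations. Here, GI50 denotes the concentration required for 50% inhibition of growth.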 Active and inactive are the calls of the source. No stated cut-off is given here; in the data, active = GI50 up to about 1.1 µM and inactive = higher.

Columns and labels:
Assay in all cases: NCI anticancer screen, dose series, 48 h
OVCAR-8 = test system: OVCAR-8
HOP-62 = test system: HOP-62
SNB-75 = test system: SNB-75
M14 = test system: M14
SK-MEL-28 = test system: SK-MEL-28
SK-OV-3 = test system: SK-OV-3
SR = test system: SR
NCI-H23 = test system: NCI-H23
U-251 = test system: U-251
ACHN = test system: ACHN
SW-620 = test system: SW-620
SF-295 = test system: SF-295
DU-145 = test system: DU-145
A549 = test system: A549
SNB-19 = test system: SNB-19
NCI/ADR-RES = test system: NCI/ADR-RES
HL-60 = test system: HL-60
CAKI-1 = test system: CAKI-1
HT-29 = test system: HT-29
LOX IMVI = test system: LOX IMVI

Measured: GI50

COC(=O)c1ccc(/C=C2\Oc3cc(O)ccc3C2=O)cc1
inactive: OVCAR-8 61.5 µM | HOP-62 > 100 µM | SNB-75 39.4 µM | M14 83.8 µM | SK-MEL-28 72.8 µM | SK-OV-3 > 100 µM | SR 42.3 µM | NCI-H23 42.3 µM | U-251 48.8 µM | ACHN 31.7 µM | SW-620 78.2 µM | SF-295 36.8 µM | DU-145 > 100 µM | A549 77.3 µM | SNB-19 69.8 µM | NCI/ADR-RES > 100 µM | HL-60 44.2 µM | CAKI-1 68.5 µM

N=c1oc2ccccc2cc1C(=O)Nc1ccccn1
inactive: OVCAR-8 > 100 µM | HOP-62 63 µM | SNB-75 > 100 µM | M14 > 100 µM | SK-MEL-28 > 100 µM | SK-OV-3 > 100 µM | SR 86.7 µM | NCI-H23 > 100 µM | U-251 > 100 µM | ACHN 53.1 µM | SW-620 > 100 µM | HT-29 > 100 µM | LOX IMVI 54 µM | DU-145 > 100 µM | A549 > 100 µM | SNB-19 > 100 µM | NCI/ADR-RES > 100 µM | HL-60 > 100 µM | CAKI-1 45.4 µM

N/C(=N\c1ccc(Cl)cc1)NS(=O)(=O)c1ccc(S(=O)(=O)c2ccccc2)s1
inactive: OVCAR-8 20 µM | HOP-62 18.1 µM | SNB-75 35.7 µM | M14 17.9 µM | SK-MEL-28 19.7 µM | SK-OV-3 38.7 µM | SR 24.8 µM | NCI-H23 17.7 µM | U-251 14.4 µM | ACHN 20.9 µM | SW-620 19 µM | HT-29 21.7 µM | SF-295 15.1 µM | LOX IMVI 16.3 µM | DU-145 21.5 µM | A549 23.9 µM | SNB-19 33.8 µM | NCI/ADR-RES 18 µM | HL-60 22.3 µM

CC1(C)CNC(=O)C2(CCCO2)CNC(C)(C)CNC(=O)C2(CCCO2)CN1 (configuration not stated)
inactive: OVCAR-8 > 10 µM | HOP-62 > 10 µM | SNB-75 > 10 µM | M14 > 10 µM | SK-MEL-28 > 10 µM | SK-OV-3 > 10 µM | SR > 10 µM | NCI-H23 > 10 µM | U-251 > 10 µM | ACHN > 10 µM | SW-620 > 10 µM | HT-29 > 10 µM | SF-295 > 10 µM | LOX IMVI > 10 µM | DU-145 > 10 µM | A549 > 10 µM | SNB-19 > 10 µM | NCI/ADR-RES > 10 µM | HL-60 > 10 µM | CAKI-1 > 10 µM

CCc1nn(CN2CCOCC2)c(=S)n1/N=C/c1ccc(-c2ccc(Cl)cc2)o1
inactive: OVCAR-8 > 100 µM | HOP-62 > 100 µM | SNB-75 50.8 µM | M14 > 100 µM | SK-MEL-28 > 100 µM | SR 80.5 µM | NCI-H23 > 100 µM | U-251 > 100 µM | ACHN > 100 µM | SW-620 > 100 µM | HT-29 > 100 µM | SF-295 > 100 µM | LOX IMVI > 100 µM | DU-145 > 100 µM | A549 > 100 µM | NCI/ADR-RES > 100 µM | HL-60 81.1 µM | CAKI-1 > 100 µM

CC(C)(C)N/C(N)=N/C#N
inactive: OVCAR-8 > 100 µM | HOP-62 > 100 µM | SNB-75 > 100 µM | M14 > 100 µM | SK-MEL-28 > 100 µM | SK-OV-3 > 100 µM | SR > 100 µM | NCI-H23 > 100 µM | U-251 > 100 µM | ACHN > 100 µM | SW-620 > 100 µM | HT-29 > 100 µM | LOX IMVI > 100 µM | DU-145 > 100 µM | A549 > 100 µM | SNB-19 > 100 µM | NCI/ADR-RES > 100 µM | HL-60 > 100 µM | CAKI-1 > 100 µM

C[C@H]1/C(=C/C(=O)OCCN(C)C)CC[C@H]2[C@H]1C(=O)C[C@H]1C(C)(C)[C@@H](O)CC[C@]21C
inactive: OVCAR-8 > 100 µM | HOP-62 > 100 µM | M14 > 100 µM | SK-MEL-28 > 100 µM | SK-OV-3 > 100 µM | SR > 100 µM | NCI-H23 > 100 µM | U-251 > 100 µM | ACHN > 100 µM | SW-620 > 100 µM | HT-29 > 100 µM | SF-295 > 100 µM | LOX IMVI > 100 µM | DU-145 > 100 µM | A549 > 100 µM | SNB-19 > 100 µM | NCI/ADR-RES > 100 µM | HL-60 > 100 µM | CAKI-1 > 100 µM

CN(C)CCNc1ncnc2[nH]c(-c3ccc4ccccc4c3)nc12
inactive: OVCAR-8 > 100 µM | HOP-62 > 100 µM | M14 > 100 µM | SK-MEL-28 > 100 µM | SK-OV-3 > 100 µM | SR > 100 µM | NCI-H23 > 100 µM | U-251 > 100 µM | ACHN > 100 µM | SW-620 > 100 µM | HT-29 > 100 µM | SF-295 > 100 µM | LOX IMVI > 100 µM | DU-145 > 100 µM | A549 > 100 µM | SNB-19 > 100 µM | NCI/ADR-RES > 100 µM | HL-60 > 100 µM | CAKI-1 > 100 µM

CC[C@@H]1CC[C@@H]2[C@H](CC[C@]3(C)[C@@H](OS(=O)(=O)c4ccc(C)cc4)CC[C@@H]23)[C@H]1CO
inactive: OVCAR-8 > 100 µM | HOP-62 > 100 µM | SNB-75 91 µM | M14 87.3 µM | SK-MEL-28 > 100 µM | SR > 100 µM | NCI-H23 > 100 µM | U-251 > 100 µM | ACHN > 100 µM | SW-620 > 100 µM | HT-29 27.3 µM | SF-295 > 100 µM | LOX IMVI 23.8 µM | DU-145 > 100 µM | A549 > 100 µM | SNB-19 > 100 µM | NCI/ADR-RES > 100 µM | HL-60 17.8 µM | CAKI-1 > 100 µM

C=C(C)C1Cc2c(cc(OC)c3c(=O)c4cccc(O)c4oc23)O1 (configuration not stated)
inactive: OVCAR-8 21.6 µM | HOP-62 18.6 µM | SNB-75 16.3 µM | M14 24.1 µM | SK-MEL-28 25.5 µM | SK-OV-3 19.5 µM | SR 36.1 µM | NCI-H23 26 µM | U-251 16.8 µM | ACHN 18.2 µM | SW-620 53.1 µM | HT-29 67.1 µM | SF-295 17.3 µM | LOX IMVI 5.7 µM | DU-145 45.8 µM | A549 31.8 µM | SNB-19 26.3 µM | NCI/ADR-RES 24.8 µM | HL-60 39.9 µM | CAKI-1 16.6 µM

CN(C)c1ccc(/C=C2\N=C(c3ccccc3)N(c3nc4c(Cl)cc(Cl)cc4s3)C2=O)cc1
inactive: OVCAR-8 61.9 µM | HOP-62 > 100 µM | M14 75.7 µM | SK-MEL-28 54.6 µM | SK-OV-3 > 100 µM | SR 32.1 µM | U-251 55.3 µM | ACHN 59 µM | SW-620 46.6 µM | HT-29 38.4 µM | SF-295 93.8 µM | LOX IMVI 38.3 µM | DU-145 > 100 µM | A549 49.9 µM | SNB-19 82.4 µM | NCI/ADR-RES 43.7 µM | HL-60 24.9 µM | CAKI-1 41.8 µM

COc1ccc(C(=O)c2sc(N(C)C)nc2-c2ccccc2)cc1
inactive: HOP-62 20.6 µM | SNB-75 35.2 µM | M14 35.3 µM | SK-MEL-28 32.1 µM | SK-OV-3 22.5 µM | SR 17.1 µM | NCI-H23 34.5 µM | U-251 43 µM | ACHN 33.7 µM | SW-620 30.9 µM | HT-29 32.9 µM | LOX IMVI 37.4 µM | DU-145 49 µM | A549 36 µM | SNB-19 64.3 µM | NCI/ADR-RES 19.8 µM | HL-60 17.1 µM

CC1=C(C)C(=O)C2=C(OCCO2)C1=O
inactive: OVCAR-8 3.08 µM | HOP-62 17.7 µM | M14 19.3 µM | SK-MEL-28 16.1 µM | SK-OV-3 17.9 µM | SR 4.09 µM | NCI-H23 18.2 µM | U-251 16.1 µM | ACHN 25.2 µM | SW-620 20.6 µM | HT-29 20 µM | SF-295 18.1 µM | LOX IMVI 12.1 µM | DU-145 18.8 µM | A549 21.5 µM | SNB-19 17.3 µM | NCI/ADR-RES 3.54 µM | HL-60 2.96 µM | CAKI-1 17.6 µM

CC(=O)OCC1OC(c2nnc(C)o2)=CC(OC(C)=O)C1OC(C)=O (configuration not stated)
inactive: OVCAR-8 > 100 µM | HOP-62 > 100 µM | SNB-75 > 100 µM | SK-MEL-28 > 100 µM | SR > 100 µM | NCI-H23 > 100 µM | U-251 > 100 µM | ACHN > 100 µM | SW-620 > 100 µM | HT-29 > 100 µM | SF-295 > 100 µM | LOX IMVI > 100 µM | DU-145 > 100 µM | A549 > 100 µM | SNB-19 > 100 µM | NCI/ADR-RES > 100 µM | HL-60 > 100 µM | CAKI-1 > 100 µM
